Measured values: PubChem BioAssay AID1159585 (Gregory J. Crowther, 2016)

target: Calcium-dependent protein kinase 1 (Plasmodium falciparum (isolate 3D7)) (UniProt P62344); assay: PfCDPK1 kinase inhibitors, biochemical, TCAMS library (AID 1159585); conditions: recombinant PfCDPK1, Kinase-Glo ATP depletion luminescence;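 note: inhibitors leave more ATP so luminescence rises with inhibition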
Sequence (P62344 whole entry, looked up): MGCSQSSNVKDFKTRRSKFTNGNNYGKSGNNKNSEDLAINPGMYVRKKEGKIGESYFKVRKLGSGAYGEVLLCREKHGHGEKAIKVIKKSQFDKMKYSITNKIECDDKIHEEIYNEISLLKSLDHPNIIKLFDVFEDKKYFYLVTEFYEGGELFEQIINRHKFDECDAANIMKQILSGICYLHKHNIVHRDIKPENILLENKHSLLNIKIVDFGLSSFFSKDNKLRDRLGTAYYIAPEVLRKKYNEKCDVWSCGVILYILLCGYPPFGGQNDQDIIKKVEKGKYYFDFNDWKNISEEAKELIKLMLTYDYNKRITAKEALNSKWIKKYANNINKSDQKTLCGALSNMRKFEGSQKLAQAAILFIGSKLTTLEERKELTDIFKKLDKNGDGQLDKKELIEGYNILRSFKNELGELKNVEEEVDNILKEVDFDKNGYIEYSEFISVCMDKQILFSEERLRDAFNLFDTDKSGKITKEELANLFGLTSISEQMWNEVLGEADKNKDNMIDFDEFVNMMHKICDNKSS

Q: For `CCn1c(-c2nonc2N)nc2c(-c3cccc(NC(=O)Nc4cccc(C(F)(F)F)c4)c3)ncc(OCCCN)c21`, which IC50 is on record?
A: The IC50 was 15 nM.

Q: For `COc1ccc(-c2cnn3ccc(Nc4cc(OC)c(OC)c(OC)c4)nc23)cc1OC`, which IC50 is on record?
A: Its IC50 is 157 nM.

Q: Which IC50 does the source give for `CC(C)(CNCc1ccc(F)c(F)c1)c1nc(-c2ccc(Cl)c(O)c2)c(-c2ccncc2)[nH]1` here?
A: Its IC50 is 451 nM.

Q: `CN(C)Cc1cccc(-c2cc3c(-c4cnn(C)c4)c(Cl)cnc3[nH]2)c1` was tested. Which IC50 did it give?
A: Its IC50 is 402 nM.

Q: With `Oc1cccc(Nc2ccnc3cc(-c4ccncc4)ccc23)c1` as the compound, how does the IC50 read?
A: The IC50 was 884 nM.

Q: How did the IC50 turn out when `O=C(Nc1cccc(-c2nn3ccccc3c2-c2ccnc(Nc3ccc(-c4ccn[nH]4)cc3)n2)c1)c1c(F)cccc1F` was run?
A: The IC50 was 22 nM.

Q: Which IC50 does the source give for `COCCNCc1cccc(-c2ccc3c(Nc4ccc(Oc5cccnc5)cc4)ccnc3c2)c1` here?
A: The IC50 was 913 nM.

Q: Which IC50 does the source give for `CC(C)(CNC(=O)C1CCN(CCOc2ccc(F)c(F)c2)CC1)c1nc(-c2ccc(Cl)c(O)c2)c(-c2ccncc2)[nH]1` here?
A: Its IC50 is 664 nM.

Q: `O=C(NCCCN1CCCCC1)c1ccc(Nc2nccc(Nc3ccc(Oc4ccccc4)cc3)n2)cc1` was tested. Which IC50 did it give?
A: The IC50 was 94 nM.

Q: With `CCN(CC)CCCOc1ccc(Nc2nccc(-c3c(-c4cccc(NC(=O)c5c(F)cccc5F)c4)nn4ccccc34)n2)cc1F` as the compound, how does the IC50 read?
A: Its IC50 is 429 nM.

Q: With `CN(C)CCNCc1cccc(-c2ccc3c(Nc4ccc(Oc5ccccn5)cc4)ccnc3c2)c1` as the compound, how does the IC50 read?
A: The IC50 was 845 nM.

Q: Which IC50 does the source give for `NC[C@H](CC1CCCCC1)NC(=O)c1ccc(-c2ccnc3[nH]ccc23)s1` here?
A: Its IC50 is 492 nM.

Q: `COc1cccc(CNCC(C)(C)c2nc(-c3ccc(Cl)c(O)c3)c(-c3ccncc3)[nH]2)c1` was tested. Which IC50 did it give?
A: Its IC50 is 275 nM.

Q: Which IC50 does the source give for `CS(=O)(=O)Cc1ccc(Nc2nccc(-c3c(-c4cccc(C(=O)Nc5c(F)cccc5F)c4)nn4ccccc34)n2)cc1` here?
A: Its IC50 is 50 nM.

Q: Which IC50 does the source give for `CN1CCN(CCCNCc2ccc(Nc3nccc(Nc4ccc(Oc5ccccc5)cc4)n3)cc2)CC1` here?
A: The IC50 was 139 nM.

Q: For `COc1cc2nccc(Nc3ccc(Oc4ccccc4)cc3)c2cc1OC`, which IC50 is on record?
A: Its IC50 is 145 nM.

Q: How did the IC50 turn out when `O=c1[nH]ccc2nc(N[C@@H]3CCNC3)nc(Nc3cc(Cl)cc(Cl)c3)c12` was run?
A: Its IC50 is 33 nM.

Q: With `NC(=O)c1ccccc1Nc1nc(Nc2ccn[nH]2)ncc1Cl` as the compound, how does the IC50 read?
A: Its IC50 is 186 nM.

Q: `COCCNCc1cccc(-c2ccc3c(Nc4ccc(Oc5ccccc5)cc4)ccnc3c2)c1` was tested. Which IC50 did it give?
A: The IC50 was 979 nM.

Q: With `CC(C)(CNC(=O)[C@@H]1CCCCN1)c1nc(-c2ccc(Cl)c(O)c2)c(-c2ccncc2)[nH]1` as the compound, how does the IC50 read?
A: Its IC50 is 192 nM.

Q: Which IC50 does the source give for `NS(=O)(=O)c1cccc(Nc2nc(N[C@@H]3CCNC3)nc3cc[nH]c(=O)c23)c1` here?
A: The IC50 was 83 nM.

Q: With `CN1CCN(Cc2ccc(-c3ccc4c(Nc5ccc(Cl)cc5F)ccnc4c3)o2)CC1` as the compound, how does the IC50 read?
A: The IC50 was 406 nM.

Q: How did the IC50 turn out when `CN1CCN(c2ccc(Nc3ncc(C#N)c(Nc4ccccc4C(N)=O)n3)cc2)CC1` was run?
A: The IC50 was 12 nM.

Q: How did the IC50 turn out when `Cc1cccc2[nH]c(-c3cc(-c4cn[nH]c4)cnc3N)nc12` was run?
A: Its IC50 is 296 nM.

Q: Which IC50 does the source give for `O=C(NCC(c1ccc(C(F)(F)F)cc1)N1CCCC1)c1cc(-c2ccncc2)c(-c2cccc(O)c2)o1` (stereo not given) here?
A: The IC50 was 283 nM.

Q: Which IC50 does the source give for `CN1CCN(c2ccc(Nc3nccc(-c4c(-c5cccc(NC(=O)c6c(F)cccc6F)c5)nn5ccccc45)n3)cc2)CC1` here?
A: The IC50 was 35 nM.

Q: With `O=C(Nc1cccc(-c2nn3ccccc3c2-c2ccnc(Nc3ccc(C(=O)N4CCOCC4)cc3)n2)c1)c1c(F)cccc1F` as the compound, how does the IC50 read?
A: Its IC50 is 92 nM.

Q: For `CNC(=O)c1ccccc1Nc1nc(Nc2ccc(N3CCN(C)CC3)nc2)ncc1C`, which IC50 is on record?
A: Its IC50 is 45 nM.

Q: For `CC(C)(C)CNCC(C)(C)c1nc(-c2ccc(Cl)c(O)c2)c(-c2ccncc2)[nH]1`, which IC50 is on record?
A: Its IC50 is 159 nM.

Q: With `NCCCOc1cnc(-c2ccccc2)c2nc(-c3nonc3N)n(CCc3ccccc3)c12` as the compound, how does the IC50 read?
A: Its IC50 is 47 nM.

Q: `Cc1nc(-c2cccc(Nc3ccnc4cc(-c5nccs5)ccc34)c2)no1` was tested. Which IC50 did it give?
A: Its IC50 is 191 nM.

Q: How did the IC50 turn out when `Cc1ccc(O)cc1Nc1ccnc2cc(-c3cccc(CNCCS(C)(=O)=O)c3)ccc12` was run?
A: The IC50 was 125 nM.

Q: With `c1ccc(Oc2ccc(Nc3ccnc(Nc4ccc5cn[nH]c5c4)n3)cc2)cc1` as the compound, how does the IC50 read?
A: The IC50 was 765 nM.

Q: For `CCn1c(-c2nonc2N)nc2c(-c3cccc(NC(=O)Nc4cccc(C#N)c4)c3)ncc(OCCCN)c21`, which IC50 is on record?
A: The IC50 was 182 nM.

Q: How did the IC50 turn out when `CC(C)(CNCc1ccc(OC(F)(F)F)cc1)c1nc(-c2ccc(Cl)c(O)c2)c(-c2ccncc2)[nH]1` was run?
A: The IC50 was 438 nM.

Q: For `CN(C)CCN(C)Cc1nc(-c2ccc3c(Nc4ccc(Oc5ccccc5)cc4)ccnc3c2)cs1`, which IC50 is on record?
A: Its IC50 is 915 nM.

Q: With `NC(=O)c1ccccc1Nc1nc(Nc2cccc(N3CCN(CCO)CC3)c2)ncc1Cl` as the compound, how does the IC50 read?
A: The IC50 was 58 nM.

Q: How did the IC50 turn out when `Oc1cc(Nc2ccnc3cc(I)ccc23)c(F)cc1Cl` was run?
A: Its IC50 is 282 nM.

Q: How did the IC50 turn out when `c1ccc(Oc2ccc(Nc3ccnc(Nc4ccc(OCCN5CCCCC5)cc4)n3)cc2)cc1` was run?
A: Its IC50 is 701 nM.

Q: How did the IC50 turn out when `NCC1(c2nc(-c3ccc(Cl)c(O)c3)c(-c3ccncc3)[nH]2)CCCCC1` was run?
A: The IC50 was 14 nM.

Q: With `Oc1cccc(-c2cnc3ccc(NCc4ccc(F)cc4)nn23)c1` as the compound, how does the IC50 read?
A: Its IC50 is 115 nM.

Q: How did the IC50 turn out when `Cn1c(Nc2cc(C(C)(C)C)on2)nc2cc(Nc3ccnc(Nc4cccc(CS(C)(=O)=O)c4)n3)ccc21` was run?
A: The IC50 was 114 nM.

Q: With `CN(C)Cc1ccc(-c2ccc3c(Nc4ccc(Cl)cc4F)ccnc3c2)o1` as the compound, how does the IC50 read?
A: The IC50 was 185 nM.

Q: How did the IC50 turn out when `CN1CCN(Cc2ccc(-c3ccc4c(Nc5cc(O)c(Cl)cc5F)ccnc4c3)o2)CC1` was run?
A: The IC50 was 131 nM.

Q: `CNC(=O)c1ccccc1Nc1nc(Nc2ccc(C(=O)O)cc2)ncc1Cl` was tested. Which IC50 did it give?
A: The IC50 was 246 nM.

Q: `N#Cc1ccc(-c2cnc3ccc(NCCc4cccnc4)nn23)cc1` was tested. Which IC50 did it give?
A: Its IC50 is 246 nM.

Q: `O=C(NCCN1CCCCC1)c1cccc(Nc2nccc(Nc3ccc(Oc4ccccc4)cc3)n2)c1` was tested. Which IC50 did it give?
A: Its IC50 is 250 nM.

Q: Which IC50 does the source give for `CCn1c(-c2nonc2N)nc2c(-c3cccc(NC(=O)Nc4ccc5c(c4)CCC5)c3)ncc(OCCCN)c21` here?
A: Its IC50 is 85 nM.

Q: With `CS(=O)(=O)Nc1cccc(-c2cnc3[nH]cc(-c4cccc(CN)c4)c3c2)c1` as the compound, how does the IC50 read?
A: The IC50 was 387 nM.

Q: For `NCc1ccc(Nc2nccc(Nc3ccc(-c4ccccc4)cc3)n2)cc1`, which IC50 is on record?
A: The IC50 was 375 nM.

Q: How did the IC50 turn out when `Clc1ccc(-c2cnc3ccc(NCCc4cccnc4)nn23)cc1` was run?
A: The IC50 was 371 nM.

Q: For `COc1ccc(Nc2ncc3c(-c4cccc(NC(=O)Cc5cccc(O)c5)c4)c[nH]c3n2)cc1OC`, which IC50 is on record?
A: The IC50 was 312 nM.

Q: How did the IC50 turn out when `CC(C)(CNC(=O)C1CCN(CCOc2ccc(Cl)cc2)CC1)c1nc(-c2ccc(Cl)c(O)c2)c(-c2ccncc2)[nH]1` was run?
A: Its IC50 is 471 nM.

Q: How did the IC50 turn out when `CC(=O)Nc1cccc(Nc2nccc(-c3c(-c4cccc(NC(=O)c5c(F)cccc5F)c4)nn4ncccc34)n2)c1` was run?
A: Its IC50 is 15 nM.

Q: `CN1CCN(Cc2cccc(Nc3nccc(Nc4ccc(Oc5ccccc5)cc4)n3)c2)CC1` was tested. Which IC50 did it give?
A: The IC50 was 801 nM.

Q: `O=C(Nc1cccc(-c2nn3ccccc3c2-c2ccnc(Nc3ccc(NCCCN4CCOCC4)c(F)c3)n2)c1)c1c(F)cccc1F` was tested. Which IC50 did it give?
A: The IC50 was 38 nM.

Q: With `COc1cc(-c2nc(C(C)(C)CN)[nH]c2-c2ccncc2)ccc1Br` as the compound, how does the IC50 read?
A: Its IC50 is 159 nM.

Q: How did the IC50 turn out when `CC(c1cccc(Nc2nccc(-c3c(-c4cccc(NC(=O)c5c(F)cccc5F)c4)nn4ccccc34)n2)c1)S(C)(=O)=O` (stereo not given) was run?
A: Its IC50 is 21 nM.

Q: For `COc1ccc(CNCC(C)(C)c2nc(-c3ccc(Cl)c(O)c3)c(-c3ccncc3)[nH]2)cc1`, which IC50 is on record?
A: The IC50 was 186 nM.

Q: `CNCC(C)(C)c1nc(-c2ccc(Cl)c(O)c2)c(-c2ccncc2)[nH]1` was tested. Which IC50 did it give?
A: Its IC50 is 49 nM.

Q: `NCCNS(=O)(=O)c1ccc(-c2ccnc3[nH]c(-c4ccncc4)cc23)cc1` was tested. Which IC50 did it give?
A: The IC50 was 422 nM.

Q: For `Cc1ccc(Nc2ccnc(Nc3ccc4c(c3)CS(=O)(=O)C4)n2)cc1O`, which IC50 is on record?
A: Its IC50 is 416 nM.

Q: Which IC50 does the source give for `NS(=O)(=O)c1ccc(Nc2nccc(-c3c(-c4cccc(NC(=O)c5c(F)cccc5F)c4)nn4ccccc34)n2)cc1` here?
A: Its IC50 is 48 nM.

Q: How did the IC50 turn out when `COCCNCc1cccc(-c2ccc3c(Nc4cc(O)c(Cl)cc4F)ccnc3c2)c1` was run?
A: Its IC50 is 436 nM.

Q: With `CN(C)CCNCc1nc(-c2ccc3c(Nc4ccc(Oc5ccccc5)cc4)ccnc3c2)cs1` as the compound, how does the IC50 read?
A: Its IC50 is 887 nM.

Q: `O=C(NCCCN1CCOCC1)c1cccc(Nc2nccc(Nc3ccc(Oc4ccccc4)cc3)n2)c1` was tested. Which IC50 did it give?
A: The IC50 was 180 nM.

Q: With `CS(=O)(=O)Cc1ccc(Nc2nccc(N3CCCc4cc(NC(=O)Nc5cccc(C(F)(F)F)c5)ccc43)n2)cc1` as the compound, how does the IC50 read?
A: Its IC50 is 145 nM.

Q: Which IC50 does the source give for `CS(=O)(=O)Cc1ccc(Nc2nccc(-c3c(-c4cccc(NC(=O)c5c(F)cccc5F)c4)nn4ncccc34)n2)cc1` here?
A: The IC50 was 11 nM.

Q: With `Cc1cc(Nc2ncc(Cl)c(Nc3ccccc3C(N)=O)n2)n[nH]1` as the compound, how does the IC50 read?
A: The IC50 was 76 nM.

Q: For `O=C(NC1CC1)c1ccc(Nc2nccc(-c3c(-c4cccc(NC(=O)c5c(F)cccc5F)c4)nn4ccccc34)n2)cc1`, which IC50 is on record?
A: Its IC50 is 26 nM.
